{"source": "paper PMC8875809", "about": "“Comparative venomic profiles of three spiders of the genus Phoneutria” (The Journal of Venomous Animals and Toxins Including …, 2022)", "origin": "cited, not measured here", "key": {"penile erection": {"test_system": "penile erection", "text": "PhTx2 toxins inhibit sodium channel inactivation. These toxins are the main responsible for the strongest neurotoxic effects of venom. […] These toxins have been explored as models for the development of a potential drug for the treatment of erectile dysfunction. || PnTx2-6 (MW 5288 Da) contains 48 amino acids, of which 10 are cysteine residues. […] Due to such effects on penile erection, PnTx2-6 has shown good perspectives for clinical application on erectile dysfunction treatment. PnTx2-6 modulates the nitric oxide (NO)/cyclic GMP pathwa ..."}, "[1]": {"test_system": "nitric oxide (NO)/cyclic GMP pathway", "conditions": "ref [24],[35],[36]", "text": "PnTx2-6 (MW 5288 Da) contains 48 amino acids, of which 10 are cysteine residues. […] Due to such effects on penile erection, PnTx2-6 has shown good perspectives for clinical application on erectile dysfunction treatment. PnTx2-6 modulates the nitric oxide (NO)/cyclic GMP pathwa ..."}, "sodium channels": {"test_system": "sodium channels", "conditions": "ref [78]", "text": "PnTx2-6 (MW 5288 Da) contains 48 amino acids, of which 10 are cysteine residues. […] Due to such effects on penile erection, PnTx2-6 has shown good perspectives for clinical application on erectile dysfunction treatment. […] Although we have not assayed Tx2-6 isoforms from P. eickstedtae (Pe-V) and P. pertyi (Pp- V), we believe that them has similar effects on sodium channels like PnTx2-6 isoform and similar results would be expected, because these toxins are homologous. The species P. eickstedtae and P. pertyi are rarer spiders. In addition, since Tx1 is the most abundant toxin, only this molecule was used for electrophysiology assays. We believe that our data, as they are, already bring the news to arouse ..."}}, "note": "“Also recorded” adds a separate entry of the source."}
{"substance": "PnTx2-6: contains 48 amino acids, of which 10 are cysteine residues; P. nigriventer toxin (P29425) (ATCAGQDQPCKETCDCCGERGECVCGGPCICRQGYFWIAWYKLANCKK; UniProt P29425 35-82, looked up)", "values": [{"measurement": "priapism", "setting": "penile erection; ref [21],[24]", "result": "found to induce priapism"}, {"measurement": "penile erection in envenomation", "setting": "penile erection; ref [29]", "result": "responsible for the penile erection"}, {"measurement": "NO release in corpus cavernosum tissue", "setting": "[1]", "result": "increased release of NO in the corpus cavernosum tissue"}, {"measurement": "effect on sodium channel inactivation", "setting": "sodium channels", "result": "modifies the kinetics of sodium channel inactivation; also recorded: decreases sodium channel inactivation"}, {"measurement": "voltage dependence of activation / sodium influx", "setting": "sodium channels", "result": "shifting the voltage dependence of activation towards more hyperpolarized potentials, thus increasing sodium influx"}]}
